In brackets after ≈: the same amount, converted by molar mass. Activity calls are given as the source filed them. The rule behind the calls is not given here.
Legend:
Cytochrome P450 2C9 = Cytochrome P450 2C9 (Homo sapiens, UniProt P11712); test: Inhibition of human liver microsomes CYP2C9 measured after 10 mins incubation by LC-MS analysis; format: ADME, Microsome
[1] = target: Short transient receptor potential channel 1 (Mus musculus) (UniProt Q61056); test: Antagonist activity at mouse TRPC1 expressed in HEK293 cells assessed as inhibition of carbachol-induced activity at 10 uM measured after 48 hrs by Whole-cell patch clamp electrophysiology; format: cell-based
[2] = Cytotoxicity against Sprague-Dawley rat primary hippocampal cells at 100 nM; format: toxicity, cell-based; settings: hippocampal neurone, 0.1 µM
Cytochrome P450 3A4 = Cytochrome P450 3A4 (Homo sapiens, UniProt P08684); test: Inhibition of human liver microsomes CYP3A4-M measured after 10 mins incubation by LC-MS analysis; format: ADME, Microsome
Hippocampal neurone [3] = test: (§1) Rescuing beta-amyloid induced neuronal cell damage in Sprague-Dawley rat primary hippocampal cell culture (composed of 60% primary neuron, 20% microglia and 20% astrocyte) assessed as decrease in soluble oligomeric Abeta-containing media (7PA2 cells) induced astrogliosis (GFAP) at 500 nM by immunostaining analysis; format: functional, cell-based
[4] = Metabolic stability in mouse liver microsomes assessed as half life measured up to 60 mins by LC-MS/MS analysis; format: ADME, Microsome; settings: 1 h
Cytochrome P450 1A2 = target: T1, Cytochrome P450 1A2 (Homo sapiens, UniProt P05177); test: Inhibition of human liver microsomes CYP1A2 measured after 10 mins incubation by LC-MS analysis; format: ADME, Microsome
T1 sequence (P05177 whole entry): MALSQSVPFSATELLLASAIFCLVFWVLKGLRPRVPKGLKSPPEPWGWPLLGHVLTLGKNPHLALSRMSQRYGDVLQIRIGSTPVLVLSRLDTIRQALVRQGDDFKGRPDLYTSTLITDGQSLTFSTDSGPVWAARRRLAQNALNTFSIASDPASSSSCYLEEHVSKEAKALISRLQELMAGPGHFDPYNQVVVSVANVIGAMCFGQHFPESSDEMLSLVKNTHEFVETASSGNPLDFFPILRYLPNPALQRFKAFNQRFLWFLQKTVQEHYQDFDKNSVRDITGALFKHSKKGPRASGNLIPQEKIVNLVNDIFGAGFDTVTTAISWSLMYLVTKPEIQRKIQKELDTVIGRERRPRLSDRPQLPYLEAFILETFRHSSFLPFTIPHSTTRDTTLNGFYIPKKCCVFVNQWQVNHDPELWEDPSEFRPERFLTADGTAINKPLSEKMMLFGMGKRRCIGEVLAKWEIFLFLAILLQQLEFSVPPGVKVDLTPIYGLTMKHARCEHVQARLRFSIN

[5] = Kinetic solubility of the compound in ph 7.4 PBS buffer measured after 24 hrs shaken by HPLC and UPLC system; format: physicochemical; settings: read-out: Kinetic_solubility
[6] = target: T2, Short transient receptor potential channel 3 (Homo sapiens) (UniProt Q13507); test: Antagonist activity at human TRPC3 expressed in HEK293 cells assessed as inhibition of carbachol-induced activity at 10 uM measured after 48 hrs by Whole-cell patch clamp electrophysiology relative to control; format: cell-based; settings: filed as antagonist
T2 sequence (whole entry): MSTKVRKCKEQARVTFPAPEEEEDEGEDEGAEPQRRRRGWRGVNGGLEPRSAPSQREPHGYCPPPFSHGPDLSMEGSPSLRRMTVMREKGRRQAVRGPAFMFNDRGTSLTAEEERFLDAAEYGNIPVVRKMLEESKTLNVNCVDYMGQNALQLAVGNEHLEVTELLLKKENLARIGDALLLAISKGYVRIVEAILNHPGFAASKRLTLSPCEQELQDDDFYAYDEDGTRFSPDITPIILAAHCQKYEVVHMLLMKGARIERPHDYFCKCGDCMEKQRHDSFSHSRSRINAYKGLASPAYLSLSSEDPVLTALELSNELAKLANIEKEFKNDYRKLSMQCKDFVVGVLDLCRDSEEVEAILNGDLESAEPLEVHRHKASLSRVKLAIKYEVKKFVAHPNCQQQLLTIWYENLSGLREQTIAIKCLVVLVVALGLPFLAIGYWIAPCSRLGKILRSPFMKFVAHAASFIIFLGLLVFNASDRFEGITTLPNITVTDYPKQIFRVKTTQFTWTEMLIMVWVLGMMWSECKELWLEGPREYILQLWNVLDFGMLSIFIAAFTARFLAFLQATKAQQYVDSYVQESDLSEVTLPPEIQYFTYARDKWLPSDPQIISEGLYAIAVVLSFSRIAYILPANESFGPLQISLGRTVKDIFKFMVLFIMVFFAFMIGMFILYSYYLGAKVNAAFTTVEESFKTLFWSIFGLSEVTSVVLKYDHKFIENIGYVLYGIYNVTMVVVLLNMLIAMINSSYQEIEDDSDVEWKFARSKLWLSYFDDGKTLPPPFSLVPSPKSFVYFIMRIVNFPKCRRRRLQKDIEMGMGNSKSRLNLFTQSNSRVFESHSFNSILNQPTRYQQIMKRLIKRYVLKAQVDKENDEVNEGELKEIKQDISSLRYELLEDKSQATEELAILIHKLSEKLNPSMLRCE

[7] = Metabolic stability in mouse liver microsomes assessed as intrinsic clearance measured up to 60 mins by LC-MS/MS analysis; format: ADME, Microsome; settings: 1 h
[8] = Metabolic stability in human liver microsomes assessed as half life measured up to 60 mins by LC-MS/MS analysis; format: ADME, Microsome; settings: 1 h
[9] = target: Transient receptor potential cation channel subfamily M member 8 (Rattus norvegicus) (UniProt Q8R455); test: Antagonist activity at rat TRPM8 expressed in HEK293 cells assessed as inhibition of carbachol-induced activity at 10 uM measured after 48 hrs by Whole-cell patch clamp electrophysiology; format: cell-based
[10] = Metabolic stability in human liver microsomes assessed as intrinsic clearance measured up to 60 mins by LC-MS/MS analysis; format: ADME, Microsome; settings: 1 h
Hippocampal neurone [11] = test: as §1, with “microgliosis (Iba1)” for “astrogliosis (GFAP)”; format: functional, cell-based
[12] = target: Short transient receptor potential channel 1 (Rattus norvegicus) (UniProt Q9QX01); test: Antagonist activity at rat TRPC1 expressed in HEK293 cells assessed as inhibition of carbachol-induced activity at 10 uM measured after 48 hrs by Whole-cell patch clamp electrophysiology; format: cell-based
Hippocampal neurone [13] = test: as §1, with “functional synapses by measuring decrease in SynI clustering level” for “astrogliosis (GFAP)”, “100” for “500”, “nM” for “nM by immunostaining analysis”; format: cell-based

Short transient receptor potential channel 1 (Mus musculus), sequence (Q61056 whole entry): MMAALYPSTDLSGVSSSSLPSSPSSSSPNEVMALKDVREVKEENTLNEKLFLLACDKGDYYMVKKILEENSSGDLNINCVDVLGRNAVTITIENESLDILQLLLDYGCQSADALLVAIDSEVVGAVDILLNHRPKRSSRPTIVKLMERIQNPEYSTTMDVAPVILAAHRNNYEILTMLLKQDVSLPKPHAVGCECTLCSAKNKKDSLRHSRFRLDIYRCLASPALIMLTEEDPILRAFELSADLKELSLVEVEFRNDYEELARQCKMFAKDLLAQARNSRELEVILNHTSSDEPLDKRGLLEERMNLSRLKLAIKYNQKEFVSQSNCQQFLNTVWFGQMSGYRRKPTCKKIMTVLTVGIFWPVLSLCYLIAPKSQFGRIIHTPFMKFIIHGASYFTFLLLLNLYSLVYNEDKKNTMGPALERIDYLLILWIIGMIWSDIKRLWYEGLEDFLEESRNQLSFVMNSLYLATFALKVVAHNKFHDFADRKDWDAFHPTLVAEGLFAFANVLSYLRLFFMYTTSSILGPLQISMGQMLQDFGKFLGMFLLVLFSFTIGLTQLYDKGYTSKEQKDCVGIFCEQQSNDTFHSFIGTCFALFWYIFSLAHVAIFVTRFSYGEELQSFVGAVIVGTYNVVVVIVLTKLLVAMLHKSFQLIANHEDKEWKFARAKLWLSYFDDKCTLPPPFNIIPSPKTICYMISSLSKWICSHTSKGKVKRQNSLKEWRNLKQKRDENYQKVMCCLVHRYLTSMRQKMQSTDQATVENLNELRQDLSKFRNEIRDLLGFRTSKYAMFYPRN
Transient receptor potential cation channel subfamily M member 8 (Rattus norvegicus), sequence (Q8R455 whole entry, looked up): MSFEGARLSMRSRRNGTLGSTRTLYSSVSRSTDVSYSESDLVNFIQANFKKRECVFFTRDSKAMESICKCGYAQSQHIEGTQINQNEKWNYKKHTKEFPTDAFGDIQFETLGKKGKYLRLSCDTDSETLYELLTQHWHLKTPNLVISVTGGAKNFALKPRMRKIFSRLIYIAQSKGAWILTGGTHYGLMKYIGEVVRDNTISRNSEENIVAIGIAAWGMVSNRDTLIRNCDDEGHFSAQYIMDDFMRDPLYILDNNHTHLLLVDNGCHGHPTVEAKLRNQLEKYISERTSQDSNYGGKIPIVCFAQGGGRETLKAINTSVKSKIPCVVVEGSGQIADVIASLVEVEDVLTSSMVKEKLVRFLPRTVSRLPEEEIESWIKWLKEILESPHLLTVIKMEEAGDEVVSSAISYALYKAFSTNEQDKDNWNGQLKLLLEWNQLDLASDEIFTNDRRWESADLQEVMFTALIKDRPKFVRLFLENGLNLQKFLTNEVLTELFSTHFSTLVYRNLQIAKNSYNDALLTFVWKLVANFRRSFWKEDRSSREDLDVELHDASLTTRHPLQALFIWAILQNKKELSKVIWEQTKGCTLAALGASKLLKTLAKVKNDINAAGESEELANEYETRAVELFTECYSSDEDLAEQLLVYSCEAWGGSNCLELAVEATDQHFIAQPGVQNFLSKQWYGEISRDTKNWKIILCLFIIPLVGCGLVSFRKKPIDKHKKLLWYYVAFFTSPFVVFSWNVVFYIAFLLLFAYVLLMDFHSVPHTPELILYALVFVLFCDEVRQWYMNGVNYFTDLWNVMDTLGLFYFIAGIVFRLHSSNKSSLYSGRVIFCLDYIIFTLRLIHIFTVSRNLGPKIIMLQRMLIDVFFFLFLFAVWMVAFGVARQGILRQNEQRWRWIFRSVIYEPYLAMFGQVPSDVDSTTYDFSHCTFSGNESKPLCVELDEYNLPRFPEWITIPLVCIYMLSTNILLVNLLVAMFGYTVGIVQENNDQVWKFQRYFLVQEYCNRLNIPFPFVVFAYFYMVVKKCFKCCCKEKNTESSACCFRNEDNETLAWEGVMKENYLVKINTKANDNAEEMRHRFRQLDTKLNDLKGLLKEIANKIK
Cytochrome P450 2C9, sequence (P11712 whole entry): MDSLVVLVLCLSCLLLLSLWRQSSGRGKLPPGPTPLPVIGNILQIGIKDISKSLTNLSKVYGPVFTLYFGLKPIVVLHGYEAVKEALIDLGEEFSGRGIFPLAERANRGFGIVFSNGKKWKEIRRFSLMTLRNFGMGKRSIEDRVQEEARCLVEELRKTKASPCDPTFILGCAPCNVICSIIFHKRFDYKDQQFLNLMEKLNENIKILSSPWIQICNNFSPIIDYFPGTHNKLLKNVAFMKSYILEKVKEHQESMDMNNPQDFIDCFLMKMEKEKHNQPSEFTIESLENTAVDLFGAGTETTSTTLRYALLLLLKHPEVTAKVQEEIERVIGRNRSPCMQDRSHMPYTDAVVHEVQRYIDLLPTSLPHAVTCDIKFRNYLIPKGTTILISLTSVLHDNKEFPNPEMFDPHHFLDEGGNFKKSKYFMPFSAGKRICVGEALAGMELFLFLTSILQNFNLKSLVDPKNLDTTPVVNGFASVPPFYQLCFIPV
Short transient receptor potential channel 1 (Rattus norvegicus), sequence (Q9QX01 whole entry): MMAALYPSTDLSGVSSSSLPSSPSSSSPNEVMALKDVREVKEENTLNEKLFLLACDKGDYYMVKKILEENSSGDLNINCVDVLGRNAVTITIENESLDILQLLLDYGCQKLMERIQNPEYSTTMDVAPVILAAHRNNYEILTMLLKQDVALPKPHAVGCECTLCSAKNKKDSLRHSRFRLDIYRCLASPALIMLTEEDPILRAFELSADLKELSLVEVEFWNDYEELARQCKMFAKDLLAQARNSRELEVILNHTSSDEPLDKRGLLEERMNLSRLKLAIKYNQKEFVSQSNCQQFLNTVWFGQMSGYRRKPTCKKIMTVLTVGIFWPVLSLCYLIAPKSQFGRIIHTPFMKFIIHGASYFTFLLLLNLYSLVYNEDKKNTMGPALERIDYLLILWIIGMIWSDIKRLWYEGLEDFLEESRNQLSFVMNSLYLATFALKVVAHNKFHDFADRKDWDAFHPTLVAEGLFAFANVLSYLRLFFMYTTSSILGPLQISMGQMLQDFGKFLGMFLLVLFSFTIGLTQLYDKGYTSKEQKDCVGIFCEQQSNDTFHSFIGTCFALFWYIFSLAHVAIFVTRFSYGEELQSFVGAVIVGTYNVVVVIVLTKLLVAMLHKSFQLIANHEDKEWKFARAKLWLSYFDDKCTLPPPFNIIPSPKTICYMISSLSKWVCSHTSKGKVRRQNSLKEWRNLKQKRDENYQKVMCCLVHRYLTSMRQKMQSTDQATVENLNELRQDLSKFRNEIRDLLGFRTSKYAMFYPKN
Cytochrome P450 3A4, sequence (P08684 whole entry): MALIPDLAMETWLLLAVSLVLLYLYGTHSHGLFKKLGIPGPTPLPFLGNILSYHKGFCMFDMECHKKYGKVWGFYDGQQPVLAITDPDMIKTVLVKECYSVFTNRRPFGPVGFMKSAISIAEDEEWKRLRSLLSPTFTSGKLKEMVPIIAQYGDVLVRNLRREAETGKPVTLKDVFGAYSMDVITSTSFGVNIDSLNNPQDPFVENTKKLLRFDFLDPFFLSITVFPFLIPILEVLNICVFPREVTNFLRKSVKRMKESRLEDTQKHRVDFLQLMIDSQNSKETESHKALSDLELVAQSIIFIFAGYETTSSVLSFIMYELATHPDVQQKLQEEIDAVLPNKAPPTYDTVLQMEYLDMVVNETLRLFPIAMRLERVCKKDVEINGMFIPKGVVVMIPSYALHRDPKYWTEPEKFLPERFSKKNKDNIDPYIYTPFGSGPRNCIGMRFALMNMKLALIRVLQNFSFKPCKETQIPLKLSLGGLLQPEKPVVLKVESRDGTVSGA

IC50 (Cytochrome P450 2C9): > 50 µM
Activity [1]: inactive
IC50 (Cytochrome P450 3A4): > 50 µM
t1/2 [4]: 0.35 h
IC50 (Cytochrome P450 1A2): > 50 µM
solubility kinetic at 24 h [5]: 0.2 µM (≈ 0.0862 µg/mL)
inhibition [6]: > 97%
CLH [7]: 33 µL/min/mg
t1/2 [8]: 3.17 h
Activity [9]: inactive
CLH [10]: 3.73 µL/min/mg
Activity [12]: inactive
SMILES: CCNCc1cnn(-c2ccc(-n3ccc(Cl)c(Cl)c3=O)cc2)c1C(F)(F)F
Activity [2]: Non-toxic
Activity (Hippocampal neurone [3]): Active
Activity (Hippocampal neurone [11]): Active
Activity (Hippocampal neurone [13]): Active

From ChEMBL document CHEMBL6078670, “Discovery of a potent and selective TRPC3 antagonist with neuroprotective effects” (Bioorg Med Chem, 2025)
